Measurements: patent US4895937A, “5-ioso-2-pyrimidinone nucleoside” (The Research Foundation of State University of New York, priority 1988, dated 1990)
Like-named read-outs stand apart in the source and are kept apart here.

Tests used:
HSV-2 = assay: Viral inhibition, HSV-2 (Example 7, method of Example 5); format: cell-based, herpes simplex type 2; details: Human alphaherpesvirus 2
Experimental: (§1) In accordance with the present invention, 1-(2-Deoxy-β-D-ribofuranosyl)-5-(methylmercapto)-2-pyrimidinone is prepared essentially in accordance with the procedure set forth in "Snythesis and Antiviral Activity of 1-(2-Deoxy-β-D-ribofuranosyl)-5-(methylmercapto)-2-pyrimidinone" by Schroeder and Bardos and Cheng, Volume 24, page 109, January 1981. HeLa cells were infected in 1640 RPMI medium with herpes simplex type 1 (HSV-1) and independently with herpes simplex type 2 (HSV-2) virus at a multiplicity of 5 to 10 plaque forming units per cell. The composition of 1640 RPMI medium is reported in "Biological Activity of 5 Ethyl, 5 Propyl, and 5 Vinyl 2'-Deoxyuridine" by Cheng et al published in Antimicrobial Agents and Chemotherapy, Volume 10, beginning at page 119 (1976). 1640 RPMI medium is commercially available from Gibco Company, Grand Island, N.Y. After 1 hour, virus absorption, the drugs were added. Resulting cultures were analyzed for virus titer at 24 hours post infection a described in the procedure set forth in "Biological Activity of 5-Ethyl, 5-Propyl and 5-Vinyl 2'-uridine" by Cheng et al. The results are set forth in Table 2. The numbers set forth in Table 2 show the number of plaque forming units in the control which contained no methylmercapto compound and the number of units at concentrations of 100, 200 and 400 micromoles of the methylmercapto compound. The results clearly indicate substantial decrease in the number of plaque forming units in the presence of 1-(2-Deoxy-β-D-ribofuranosyl)-5-(methylmercapto)-2-pyrimidinone.
(§2) The above described methyl compound was tested for viral inhibition substantially in accordance with the method of Example 5 except that the concentrations were 50 and 100 micromolar.

HSV-1 = assay: Viral inhibition, HSV-1 (Example 7, method of Example 5); format: cell-based, herpes simplex type 1; details: Human alphaherpesvirus 1
Experimental: as §1, §2

murine leukemia L 1210 = details: cited from earlier work
virus = details: literature; cited from earlier work
PFA-resistant strains = assay: Antiherpes activity, PFA-resistant strain (Example 10); format: cell-based; details: 5 μM; read-out: plaque-forming units as % of control
Experimental: (§3) IPdR and 5-bromo-2-pyrimidinone-2-deoxyribonucleoside (BrPdR) were tested for antiherpes activity according to procedures described by Cheng, Y.-C., et al. Antimicrob. Agents Chemother (1976) 10, 119.

[1] = test system: ACG (Tr7), acyclovir resistant strain of HSV1; assay: Antiherpes activity, acyclovir resistant strain of HSV1 (Tr7) (Example 10); format: cell-based, HSV-1; details: Human alphaherpesvirus 1, read-out: plaque-forming units as % of control
Experimental: as §3

[2] = test system: BVdU resistant strain of HSV-1; assay: Antiherpes activity, BVdU resistant strain (Example 10); format: cell-based; details: Human alphaherpesvirus 1, read-out: plaque-forming units as % of control
Experimental: as §3

HSV-1 (CLl0l) = assay: Antiherpes activity, HSV-1 (CLl0l) (Example 10); format: cell-based
Experimental: as §3

HSV-1 (KOS) = assay: Antiherpes activity, HSV-1 (KOS) (Example 10); format: cell-based
Experimental: as §3

[3] = test system: ACG (S1), acyclovir resistant strain of HSV1; assay: Antiherpes activity, acyclovir resistant strain of HSV1 (S1) (Example 10); format: cell-based, HSV-1; details: Human alphaherpesvirus 1, read-out: plaque-forming units as % of control
Experimental: as §3

HSV-2 (333) = assay: Antiherpes activity, HSV-2 (333) (Example 10); format: cell-based
Experimental: as §3

HSV-2 (CEU-G) = assay: Antiherpes activity, HSV-2 (CEU-G) (Example 10); format: cell-based; details: Human alphaherpesvirus 2, read-out: plaque-forming units as % of control
Experimental: as §3

[4] = test system: HSV-1 and HSV-2 strains (herpes virus group); assay: Antiherpes activity, overall statement; format: cell-based
Experimental: as §3

HSV-2 (Strain 333) [5] = assay: Antiviral activity in HSV-2 infected mice by various routes (Example 9); format: in vivo, Swiss-Webster female mice; details: for % ILS: excluding 45 day survivors
Experimental: The drugs were administered once a day for five days or twice daily (12 hour intervals) for 2.5 days beginning 24 hours postinfection. Mean body weight determinations of drug treated and control animals were made during the treatment period as an indicator of sublethal toxicity. Deaths were recorded through day 45.

[6] = test system: human nasopharyngeal carcinoma KB cells; assay: Cytotoxicity / cell proliferation in KB cells (Example 8 Part B); format: cell-based
Experimental: (§4) To compare the toxicity of FPdR and IPdR human nasopharyngeal carcinoma KB cells obtained from the American Type Culture Collection were maintained as a monolayer in RPMI 1640 supplemented with 5% fetal bovine serum, 10 mM HEPES buffer (pH 7.4) and karamycin (100 μg/ml). Cells were maintained at 37° C. in a humidified atmosphere of 5% CO2 in air. Cell numbers were determined with an electronic particle counter (Particle Data, Inc., Elmhurst, Ill.).
(§5) For determination of drug effect on cell proliferation, cells were harvested from rapidly proliferting cultures by treatment with pancreation. Cell number was determined and plated in 24 well (6 mm well diameter) plates at a concentratin of 5×10^3 cells/ml. Drug exposures were initiated by a complete change of medium after overnight incubation. Following a 72 hour drug exposure […]. of thiazolyl blue was added and incubated for a further 4 hour period. The media from the plates was aspirated completely and […] DMSO was added to each well. The plates were placed on a shaker for 5 minutes and the blue solution transferred to 96 well plates and read at 540 nm with a scanning multiwell spectrophotometer (Biotek Instruments, Inc. Burlington, Vt.).

[7] = as above; format: cell-based, human; details: human, kb cells, 72 hour exposure
Experimental: as §4, §5

host cell = details: literature, Oftebro et al., Oyen et al.; cited from earlier work
HSV-2 (strain 333) [8] = assay: Antiviral activity, HSV-2 plaque reduction (Example 8 Part A); format: cell-based
Experimental: The effects of 1-(2-Deoxy-β-D-ribofuranosyl)-5-iodo-2-pyrimidinone (IPdR) of Example 3 were compared with 1-(2-Deoxy-β-D-ribofuranosyl)-5-fluoro-2-pyrimidinone (FPdR) on HSV-2 (strain 333) in […]. Twenty four well plates (sterile) were plated with 10^6 Vero cells/well the day before infecting. 250 PFU of HSV-2 were used in each well. The test compounds, IPdR and FPdR, were added at zero times of post infection and the cultures incubated at 37° C. for 48 hours. At the end of the incubation period the media was removed from Vero cells. Plates were strained with 0.8% crystal violet in 50% ethanol for 15 minutes. The plaque was counted.

[9] = test system: herpatic lesions of the skin; details: topical; cited from earlier work
bone marrow = details: cited from earlier work
[10] = intravenous injection; cited from earlier work
nucleotidases = details: systemic administration; cited from earlier work
[11] = 50 micromolar, vs untreated control
[12] = Human alphaherpesvirus 1, 5 μM, read-out: plaque-forming units as % of control
[13] = Human alphaherpesvirus 1, read-out: plaque-forming units as % of control
[14] = 40 mg/kg oral, 2 × 21/2, 72 hours after implant
[15] = 40 mg/kg oral, 2 × 21/2, innoculation dose 1 × 10^6 PFU

## Cc1cnc(=O)n(C2C[C@H](O)[C@@H](CO)O2)c1 (stereo in doubt) [methyl compound, 1-(2-Deoxy-α-D-ribofuranosyl)-5-(methyl)-2-pyrimidinone]
HSV-2; [11]
  inhibition at 50 µM: 87.9%
HSV-2; 100 micromolar
  inhibition at 100 µM: 98.3%
HSV-1; [11]
  inhibition at 50 µM: 95.5%
HSV-1; 100 micromolar
  inhibition at 100 µM: 99%

## O=c1ncc(Br)cn1[C@@H]1O[C@H](CO)[C@@H](O)[C@H]1O [5-bromo]
Murine leukemia L 1210
  anti-tumor activity: lack of anti-tumor activity

## O=c1ncc(Cl)cn1[C@@H]1O[C@H](CO)[C@@H](O)[C@H]1O [5-chloro]
Murine leukemia L 1210
  anti-tumor activity: lack of anti-tumor activity

## O=c1ncc(F)cn1[C@@H]1O[C@H](CO)[C@@H](O)[C@H]1O [5-fluoro riboside, 5-fluoro-pyrimidin-2-one riboside]
virus
  anti-viral activity: possessing anti-viral activity
Murine leukemia L 1210
  anti-tumor activity: only the 5-fluoro was active

## Nc1nc2c(ncn2COCCO)c(=O)[nH]1 [ACG, acyclovir, reference compound]
PFA-resistant strains
  activity at 5 µM: 100%
[1]
  activity at 5 µM: 85%
[2]
  activity at 5 µM: 0.7%
HSV-1 (CLl0l); [12]
  activity at 5 µM: 4%
HSV-1 (KOS); [12]
  activity at 5 µM: 6.5%
[3]
  activity at 5 µM: 100%

## O=c1[nH]c(=O)n([C@H]2C[C@H](O)[C@@H](CO)O2)cc1/C=C/Br [BVdU, (bromovinyl) deoxyuridine, reference compound]
[1]
  activity at 30 µM: 0.8%
[2]
  activity at 30 µM: 52%
HSV-1 (CLl0l); [13]
  activity at 30 µM: 0.4%
HSV-2 (333); Human alphaherpesvirus 2, read-out: plaque-forming units as % of control
  activity at 30 µM: 1.7%
HSV-1 (KOS); [13]
  activity at 30 µM: 0.1%
[3]
  activity at 30 µM: 3.7%

## O=c1ncc(Br)cn1[C@H]1C[C@H](O)[C@@H](CO)O1 [BrPdR, 1-(2-Deoxy-β-D-ribofuranosyl)-5-(bromo)-2-pyrimidinone]
HSV-2 (CEU-G)
  activity at 100 µM: 7.1%
HSV-2 (333); Human alphaherpesvirus 2, 100 μM, read-out: plaque-forming units as % of control
  activity at 100 µM: 4.5%
[4]
  antiherpes / anti-viral activity (words): significant antiherpes activities
HSV-1 (KOS); Human alphaherpesvirus 1, 100 μM, read-out: plaque-forming units as % of control
  activity at 100 µM: 0.6%

## Nc1nc2c(ncn2COC(CO)CO)c(=O)[nH]1 [DHPG, Dihydroxy propoxymethyl guanine, reference compound]
HSV-2 (Strain 333) [5]; 40 mg/kg oral, 2 × 21/2
  Survivors/Total: 20/20
  percent survival: 100%
HSV-2 (Strain 333) [5]; [14]
  Survivors/Total: 5/5
  percent survival: 100%
HSV-2 (Strain 333) [5]; 40 mg/kg oral, 2 × 21/2, control 9.8 ± 1.3
  Mean Survival Time: > 45 days
HSV-2 (Strain 333) [5]; 40 mg/kg oral, 2 × 21/2, control 10.6 ± 2.1
  Mean Survival Time: > 45 days
HSV-2 (Strain 333) [5]; [15]
  Survivors/Total: 2/5
  percent survival: 40%
  % ILS: 200%
HSV-2 (Strain 333) [5]; 40 mg/kg oral, 2 × 21/2, innoculation dose 1 × 10^6 PFU, control 10.0 ± 1.2
  Mean Survival Time (days), of the mice that died: 20.0 ± 7.0 days

## C#Cc1cnc(=O)n([C@H]2C[C@H](O)[C@@H](CO)O2)c1 [EPdR]
HSV-2 (Strain 333) [5]; 100 mg/kg IP, 1 × 5
  Survivors/Total: 1/5
  percent survival: 20%
  % ILS: 94%
HSV-2 (Strain 333) [5]; 100 mg/kg IP, 1 × 5, control 9.6 ± 1.1
  Mean Survival Time (days), of the mice that died: 9.0 ± 0.8 days

## O=c1ncc(F)cn1[C@H]1C[C@H](O)[C@@H](CO)O1 [FPdR, 1-(2-Deoxy-β-D-ribofuranosyl)-5-fluoro-2-pyrimidinone]
virus
  anti-viral activity: exhibiting anti-viral activity
[6]
  toxicity against the host cells: significantly greater than IPdR
[6]; listed as 5-fluoro deoxyriboside
  toxicity against the host cells: more toxic to the host than to the virus
[7]; 1.0 μm, read-out: % Growth
  activity at 72 h, 1 µM: 102%
[7]; 10 μm, read-out: % Growth
  activity at 72 h, 10 µM: 84%
[7]; 25 μm, read-out: % Growth
  activity at 72 h, 25 µM: 49%
[7]; 50 μm, read-out: % Growth
  activity at 72 h, 50 µM: 21%
[7]; cytotoxicity, read-out: ID50
  IC50 at 72 h: 25 µM
Host cell
  toxicity to the host cell versus virus: more toxic to the host cell than to the virus
HSV-2 (strain 333) [8]
  antiviral activity, comparison of IPdR and FPdR: comparable in antiviral activity
HSV-2 (strain 333) [8]; Human alphaherpesvirus 2, Vero, 100 μM, 48 hours
  inhibition at 100 µM: 50.5%

## O=c1[nH]c(=O)n([C@H]2C[C@H](O)[C@@H](CO)O2)cc1I [idoxuridine, 5-iodo-2'-deoxyuridine]
[9]
  response of herpatic lesions of the skin: do not respond
Bone marrow
  toxicities upon systemic administration: bone marrow depression
[10]
  disappearance of most of the active form from the blood: about thirty
nucleotidases
  inactivation by nucleotidases: rapidly inactivated by nucleotidases
